Read-outs that look alike come from different tables or passages of the source.

In one data set the test system is potted vines. Put plainly: Tolerance by potted vines in greenhouse; spray application. It is filed as in vivo. The settings on record: for Potted vines - leaf damage: 4.0 and 8.0 kg/ha. The method, then:
(§1) Plastic flowerpots having a volume of 300 cm^3 were filled with a sandy loam and the test plants placed therein (either as seed, as vegetatively reproduced species, or as potted plants, e.g., vines). For preemergence treatment, the active ingredients were suspended or emulsified in water as vehicle and sprayed onto the surface of the soil immediately after sowing by means of finely distributing nozzles. The potted vines were treated by spraying them with the correspondingly diluted liquor. For postemergence treatment, the agents were, as stated above, sprayed in water onto the leaves of the test plants, some liquor also falling onto the soil. In some special cases, solid active ingredients were first dissolved in dimethylformamide and then applied in a total liquor amount of 400 liters of water per hectare. For the postemergence treatment, the plants were first grown to a height of from 3 to 10 cm before being treated. With grasses, the first growth was cut, and the new growth treated 2 to 3 days after cutting. The temperature requirements of the plants were taken into account by placing them in cooler or warmer sections of the greenhouse. The experiments were run for from 4 to 6 weeks, during which time the plants were tended and their reaction to the various treatments was assessed.
(§2) The application rates are given in kg/ha of active ingredient, regardless of the method of application and the amount of water used.
(§3) A 0 to 100 scale was used for the evaluation, 0 denoting normal emergence or no damage (or no inhibition), and 100 denoting non-emergence or complete destruction of the plants. A distinction should be made in the influence on growth between desired changes without any appreciable disadvantageous phytotoxic effects (e.g., purely growth-regulating effects) and those of a phytotoxic herbicical character.

The next data set concerns Poa pratensis. Put plainly: Growth inhibition in lawns, preemergence treatment in the greenhouse. It is filed as in vivo. The method, then:
as §1, §2, §3

The next data set has as its system Sinapis alba. Put plainly: Herbicidal action, pre- and postemergence application in the greenhouse. In kind it is in vivo. The settings on record: post-emergence, read-out: % damage. The protocol:
as §1, §2, §3

The test system of a further data set is Lolium mult. Described as above. It is filed as in vivo. Conditions: Lolium, post-emergence, read-out: % damage. The protocol:
as §1, §2, §3

The test system of the next data set is Mentha piper. Described as above. Conditions: post-emergence; 3.0 kg/ha POST; read-out: % damage. It is filed as in vivo. The method, then: as §1, §2, §3
The test system of a further data set is Ipom. spp. The description is as above. It is filed as in vivo, Ipomoea spp. The settings on record: Ipomoea, post-emergence; 3.0 kg/ha POST; read-out: % damage. The protocol:
as §1, §2, §3

In a further data set the test system is Galium apar. The description is as above. It is filed as in vivo, Galium aparine. The settings on record: post-emergence, read-out: % damage. The protocol: as §1, §2, §3
Another data set concerns Cynodon dact. (seed). The data set is described as above. It is filed as in vivo, Cynodon dactylon. The settings on record: appln. rate 2 kg/ha, POST line. The protocol: as §1, §2, §3

With `CCNc1nc(Cl)nc(NCC)n1`, the “Potted vines - leaf damage” value with potted vines is on record as “chlorotic yellow- ing, necroses”. For the same molecule, the “Change in shoot growth” value in the data set on potted vines (4.0 kg/ha) is 17.3 cm; in the data set on potted vines (8.0 kg/ha), 10.3 cm.

On to `N#Cc1c(Cl)cccc1Cl`, for which the “Potted vines - leaf damage” value in the data set on potted vines is given as “slight chlorosis”. The figures for the “Change in shoot growth” value in the data set with potted vines (4.0 kg/ha) and with potted vines (8.0 kg/ha) were 15.3 cm and 15.7 cm, respectively.

Usually inhibition stands for the change of the read-out against control, counted positive when it falls. Consider `[O-][N+]1=NC2C3CC(C4C3N4c3ccc(Br)cc3)C21` (centres unmarked), for which the “Growth after emergence, remark” value with Poa pratensis (0.5 to 4.0 kg/ha) was “very short growth overall; grass compact”. For the same molecule, the inhibition at 500 g/ha with Poa pratensis (Poa pratensis, pre-emergence, 0.5 kg/ha, read-out: % growth inhibition after emergence) amounted to 50%. Besides, the inhibition at 1000 g/ha in the data set with Poa pratensis (Poa pratensis, pre-emergence, 1.0 kg/ha, read-out: % growth inhibition after emergence) is 60%. For the same molecule, the inhibition at 2000 g/ha in the data set on Poa pratensis (Poa pratensis, pre-emergence, 2.0 kg/ha, read-out: % growth inhibition after emergence) came to 60%. Moreover, the inhibition at 4000 g/ha in the data set with Poa pratensis (Poa pratensis, pre-emergence, 4.0 kg/ha, read-out: % growth inhibition after emergence) was determined as 70%.

Turning to `BrC1=CC2CC1C1N=NC21` (centres unmarked), the pest or weed control at 3000 g/ha in the data set with Sinapis alba (3.0 kg/ha POST) is 100%.

Consider `O=C1NC2C3CC(C(Br)C3Br)C12` (centres unmarked), for which the pest or weed control at 3000 g/ha with Lolium mult. (3.0 kg/ha POST) is 95%; with Mentha piper. it was 40%; in the data set on Ipom. spp. it was 95%; in the data set on Galium apar. (3.0 kg/ha POST), 70%.

Take `[O-][N+]1=NC2C3CC(C(Br)C3Br)C21` (centres unmarked): the pest or weed control at 3000 g/ha in the data set with Lolium mult. (3.0 kg/ha POST) was 85%; in the data set with Lolium mult. (3.0 kg/ha PRE), 80%; in the data set with Mentha piper. it was 95%; in the data set on Sinapis alba (3.0 kg/ha PRE) it was 80%; with Ipom. spp. it was 60%; in the data set with Galium apar. (3.0 kg/ha POST), 40%.

Turning to `Cc1ccc(NC2C(Cl)C3CC2C2N=NC32)cc1` (centres unmarked), the pest or weed control at 3000 g/ha with Lolium mult. (3.0 kg/ha POST) amounted to 100%; in the data set with Lolium mult. (3.0 kg/ha PRE), 80%; in the data set with Mentha piper., 100%; in the data set with Sinapis alba (3.0 kg/ha PRE) it was 100%; with Ipom. spp. it was 100%; with Galium apar. (3.0 kg/ha POST) it was 75%.

For the molecule `Cc1ccc(NC2C(Br)C3CC2C2N=NC32)cc1` (centres unmarked), the pest or weed control at 3000 g/ha in the data set on Lolium mult. (3.0 kg/ha POST) was determined as 100%; in the data set on Lolium mult. (3.0 kg/ha PRE) it was 95%; in the data set with Mentha piper. it was 100%; in the data set on Sinapis alba (3.0 kg/ha PRE), 100%; with Ipom. spp., 100%; with Galium apar. (3.0 kg/ha POST), 80%. Moreover, the “% damage” value in the data set with Cynodon dact. (seed) amounted to 100%.

Turning to `CC(=O)OC1C2CC(C3N=NC23)C1Nc1ccc(Br)cc1` (centres unmarked), the pest or weed control at 3000 g/ha in the data set with Lolium mult. (3.0 kg/ha POST) was 100%; with Lolium mult. (3.0 kg/ha PRE) it was 80%; in the data set on Mentha piper., 95%; in the data set on Sinapis alba (3.0 kg/ha PRE), 100%; in the data set with Ipom. spp. it was 85%; in the data set on Galium apar. it was 65%.
